pKd: −log10 of the molar value.
Key:
PreQ1 riboswitch [1] = experiment: Binding affinity to SA sensor chip-immobilized Tte preQ1 riboswitch aptamer assessed as dissociation constant by SPR analysis; type: nucleic-acid assay, Caldanaerobacter subterraneus, subsp. tengcongensis
PreQ1 riboswitch [2] = experiment: Binding affinity to SA sensor chip-immobilized Tte preQ1 riboswitch aptamer assessed as binding constant (Kon) by SPR analysis; type: nucleic-acid assay; details: Caldanaerobacter subterraneus; subsp. tengcongensis
PreQ1 riboswitch [3] = experiment: Binding affinity to SA sensor chip-immobilized Tte preQ1 riboswitch aptamer assessed as binding constant (Koff) by SPR analysis; type: nucleic-acid assay; details: Caldanaerobacter subterraneus; subsp. tengcongensis
PreQ1 riboswitch [4] = experiment: Binding affinity to SA sensor chip-immobilized Tte preQ1 riboswitch aptamer assessed as dissociation constant by SPR steady-state analysis; type: nucleic-acid assay, Caldanaerobacter subterraneus, subsp. tengcongensis
PreQ1 riboswitch [5] = experiment: Binding affinity to Tte preQ1 riboswitch aptamer assessed as dissociation constant by MST analysis; type: nucleic-acid assay, Caldanaerobacter subterraneus, subsp. tengcongensis
PreQ1 riboswitch [6] = experiment: Binding affinity to Tte preQ1 riboswitch aptamer assessed as dissociation constant by ITC analysis; type: nucleic-acid assay, Caldanaerobacter subterraneus, subsp. tengcongensis
PreQ1 riboswitch [7] = experiment: Binding affinity to Tte preQ1 riboswitch assessed as change in Gibb's free energy by ITC analysis; type: nucleic-acid assay; details: Caldanaerobacter subterraneus; subsp. tengcongensis
PreQ1 riboswitch [8] = experiment: Binding affinity to Tte preQ1 riboswitch aptamer assessed as change in enthalpy by ITC analysis; type: nucleic-acid assay; details: Caldanaerobacter subterraneus; subsp. tengcongensis
PreQ1 riboswitch [9] = experiment: Binding affinity to Tte preQ1 riboswitch aptamer assessed as change in entropy by ITC analysis; type: nucleic-acid assay; details: Caldanaerobacter subterraneus; subsp. tengcongensis
PreQ1 riboswitch [10] = experiment: Binding affinity to Tte preQ1 riboswitch aptamer assessed as binding constant (Kon) by ITC analysis; type: nucleic-acid assay; details: Caldanaerobacter subterraneus; subsp. tengcongensis
PreQ1 riboswitch [11] = experiment: Binding affinity to Tte preQ1 riboswitch aptamer assessed as binding constant (Koff) by ITC analysis; type: nucleic-acid assay; details: Caldanaerobacter subterraneus; subsp. tengcongensis
Precursor microRNA-372 = experiment: Binding affinity to pre-miRNA-372 beacon (unknown origin) assessed as dissociation constant measured after 4 hrs by fluorescence based analysis; type: nucleic-acid assay
[12] = target: S-adenosylmethionine-VI riboswitch; experiment: Binding affinity to SA sensor chip-immobilized Bifidobacterium angulatum SAM-VI riboswitch aptamer assessed as dissociation constant by SPR analysis; type: nucleic-acid assay
[13] = system: S-adenosylmethionine-VI riboswitch; experiment: Binding affinity to SA sensor chip-immobilized Bifidobacterium angulatum SAM-VI riboswitch aptamer assessed as binding constant (Kon) by SPR analysis; type: nucleic-acid assay
[14] = system: S-adenosylmethionine-VI riboswitch; experiment: Binding affinity to SA sensor chip-immobilized Bifidobacterium angulatum SAM-VI riboswitch aptamer assessed as binding constant (Koff) by SPR analysis; type: nucleic-acid assay
[15] = target: S-adenosylmethionine-VI riboswitch; experiment: Binding affinity to SA sensor chip-immobilized Bifidobacterium angulatum SAM-VI riboswitch aptamer assessed as dissociation constant by SPR steady-state analysis; type: nucleic-acid assay
TAR RNA = experiment: Binding affinity to Alexa Fluor 488-labeled HIV-1 TAR RNA assessed as dissociation constant by fluorescence based analysis; type: nucleic-acid assay, Human immunodeficiency virus 1
Ribozyme [16] = experiment: Binding affinity to Tetrahymena group I ribozyme (unknown origin) assessed as dissociation constant; type: nucleic-acid assay
Ribozyme [17] = experiment: Binding affinity to Tetrahymena group I ribozyme (unknown origin) assessed as binding constant (Kon); type: nucleic-acid assay
Ribozyme [18] = experiment: Binding affinity to Tetrahymena group I ribozyme (unknown origin) assessed as binding constant (Koff); type: nucleic-acid assay
[19] = target: S-adenosylmethionine-VI riboswitch; experiment: Binding affinity to Bifidobacterium angulatum SAM-VI riboswitch assessed as dissociation constant by ITC analysis; type: nucleic-acid assay
[20] = system: S-adenosylmethionine-VI riboswitch; experiment: Binding affinity to Bifidobacterium angulatum SAM-VI riboswitch assessed as assessed as binding constant (Kon) by ITC analysis; type: nucleic-acid assay
PreQ1 riboswitch [21] = experiment: Binding affinity to Alexa Fluor 647-labeled Tte preQ1 riboswitch assessed as dissociation constant by fluorescence based analysis; type: nucleic-acid assay, Caldanaerobacter subterraneus, subsp. tengcongensis

| Compound | pKd (PreQ1 riboswitch [1]) | K (PreQ1 riboswitch [2]) | koff (PreQ1 riboswitch [3]) | pKd (PreQ1 riboswitch [4]) | pKd (PreQ1 riboswitch [5]) | pKd (PreQ1 riboswitch [6]) | deltaG (PreQ1 riboswitch [7]) | deltaH (PreQ1 riboswitch [8]) | -TdeltaS (PreQ1 riboswitch [9]) | K (PreQ1 riboswitch [10]) | K (PreQ1 riboswitch [11]) | other results |
| --- | --- | --- | --- | --- | --- | --- | --- | --- | --- | --- | --- | --- |
| Nc1ncnc2c1ncn2[C@@H]1O[C@H](CNCC[C@H](N)C(=O)O)[C@@H](O)[C@H]1O | 4.91 | 2.94 10^3/Ms | 0.0361 s⁻¹ | 4.68 | 4.48 | 5.48 | -31.3 kJ/mol | -95.3 kJ/mol | 64 kJ/mol | 1.54 10^4/M/s | 4.66 10^-2/s | – |
| NC[C@@H]1O[C@H](O[C@H]2[C@@H](O)[C@H](O[C@@H]3[C@@H](O)[C@H](N)C[C@H](N)[C@H]3O[C@H]3O[C@H](CN)[C@@H](O)[C@H](O)[C@H]3N)O[C@@H]2CO)[C@H](N)[C@@H](O)[C@@H]1O [FRAMYCETIN] | – | – | – | – | – | – | – | – | – | – | – | pKd (Precursor microRNA-372): 5.13 |
| NCCCNC[C@H]1O[C@@H](n2cnc3c(N)ncnc32)[C@H](O)[C@@H]1O | 5.38 | 1.28 10^4/Ms | 0.0481 s⁻¹ | 4.80 | 5.01 | 5.76 | -33 kJ/mol | -87.5 kJ/mol | 54.5 kJ/mol | 1.36 10^4/M/s | 2.38 10^-2/s | pKd [12]: 5.51; K [13]: 1.48 10^4/M/s; K [14]: 4.59 10^-2/s; pKd [15]: 5.22 |
| CC(=O)Nc1nc(-c2cccc(NC(=O)[C@H]3C[C@H](OC(=O)[C@@H](N)CCCN)[C@@H](COC(=O)[C@@H](N)CCCCN)O3)c2)cs1 | – | – | – | – | – | – | – | – | – | – | – | pKd (TAR RNA): 5.10 |
| CC(=O)Nc1csc(-c2cccc(NC(=O)CCc3cn(C[C@H]4O[C@@H](O[C@@H]5[C@@H](O)[C@H](N)C[C@H](N)[C@H]5O[C@H]5O[C@H](CN)[C@@H](O)[C@H](O)[C@H]5N)[C@H](O)[C@@H]4O[C@H]4O[C@@H](CN)[C@@H](O)[C@H](O)[C@H]4N)nn3)c2)n1 | – | – | – | – | – | – | – | – | – | – | – | pKd (Precursor microRNA-372): 7.80 |
| Nc1nc2c(ncn2[C@H]2C[C@H](N)[C@@H](CO)O2)c(=O)[nH]1 | – | – | – | – | – | – | – | – | – | – | – | pKd (Ribozyme [16]): 7.03; K (Ribozyme [17]): > 2.1 10^7/M/min; K (Ribozyme [18]): > 2 min⁻¹ |
| C[S+](CC[C@H](N)C(=O)[O-])C[C@H]1O[C@@H](n2cnc3c(N)ncnc32)[C@H](O)[C@@H]1O (stereo partly specified) [ADEMETIONINE] | 5.43 | 2.98 10^3/Ms | – | 5.34 | 6.14 | 6.17 | -35.3 kJ/mol | -60.7 kJ/mol | 25.5 kJ/mol | 2.13 10^4/M/s | 1.42 10^-2/s | pKd [19]: 6.48; K [20]: 2.46 10^4/M/s |
| Nc1ncnc2c1ncn2[C@@H]1O[C@H](CSCC[C@H](N)C(=O)O)[C@@H](O)[C@H]1O [S-ADENOSYLHOMOCYSTEINE] | 3.82 | 3.88 10^2/Ms | 0.054 s⁻¹ | 3.92 | 4.46 | 4.85 | -27.8 kJ/mol | -34.6 kJ/mol | 6.8 kJ/mol | 3.57 10^3/M/s | 4.58 10^-2/s | pKd [19]: 4.96; K [20]: 5.5 10^3/M/s |
| NCCOc1ccc2oc3ccccc3c2c1 | – | – | – | – | – | – | – | – | – | – | – | pKd (PreQ1 riboswitch [21]): 6.30 |
| Nc1nc2c(ncn2[C@@H]2O[C@H](CO)[C@@H](O)[C@H]2O)c(=O)[nH]1 [GUANOSINE] | – | – | – | – | – | – | – | – | – | – | – | pKd (Ribozyme [16]): 3.96; K (Ribozyme [17]): 4 10^5/M/min; K (Ribozyme [18]): 44 min⁻¹ |

— ChEMBL document CHEMBL6134852, “Electrostatic Anchoring in RNA-Ligand Design─Dissecting the Effects of Positive Charges on Affinity, Selectivity, Binding Kinetics, and Thermodynamics” (J Med Chem, 2025)
